# Measurements published in the supplement of paper PMC10307832.
# How the values were obtained:
# Assay in all cases: relative viability (nuclei count vs DMSO), 5 days (fraction); higher = more cells survive
# [1] = compound: C1CCC(CC1)N(CCNCCC2=C3C(=C(C=C2)O)NC(=O)CO3)C(=O)CCNCCC4=CC(=C(C=C4)Cl)Cl [AZ505] + CS(=O)(=O)N1CCN(Cc2cc3nc(-c4cccc5[nH]ncc45)nc(N4CCOCC4)c3s2)CC1 [Pictilisib] (partner 1 µM)
# Outline: (§1)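 Medians of duplicate plates are given as relative viability. That measure is the nuclei count in treated wells divided by the count in vehicle wells. Counts were taken on 4× images of lung cancer cell lines in 1536-well plates, 5 days after pin-tool dosing the day after seeding with one drug alone or a fixed anchor-drug dose plus five library-drug doses (not always all listed) in √10 steps.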
# [2] = compound: C1CCC(CC1)N(CCNCCC2=C3C(=C(C=C2)O)NC(=O)CO3)C(=O)CCNCCC4=CC(=C(C=C4)Cl)Cl [AZ505] + COc1cc2c(Oc3ccc(NC(=O)C4(C(=O)Nc5ccc(F)cc5)CC4)cc3F)ccnc2cc1OCCCN1CCOCC1 [Foretinib] (partner 0.25 µM)
# Outline: as §1
# [3] = compound: Cn1c(=O)n(-c2ccc(C(C)(C)C#N)cc2)c2c3cc(-c4cnc5ccccc5c4)ccc3ncc21 [Dactolisib] + Cc1cc(Nc2cc(N3CCN(C)CC3)nc(Sc3ccc(NC(=O)C4CC4)cc3)n2)n[nH]1 [Tozasertib] (partner 0.1 µM)
# Outline: as §1
# [4] = compound: Cn1c(=O)n(-c2ccc(C(C)(C)C#N)cc2)c2c3cc(-c4cnc5ccccc5c4)ccc3ncc21 [Dactolisib] + O=C(c1cc(Cc2n[nH]c(=O)c3ccccc23)ccc1F)N1CCN(C(=O)C2CC2)CC1 [Olaparib] (partner 8 µM)
# Outline: as §1
Cell Line,relative viability ([1]; first compound 0.08 µM),relative viability ([1]; first compound 0.253 µM),relative viability ([1]; first compound 0.8 µM),relative viability ([1]; first compound 2.53 µM),relative viability ([1]; first compound 8 µM),relative viability ([2]; first compound 0.08 µM),relative viability ([2]; first compound 0.253 µM),relative viability ([2]; first compound 0.8 µM),relative viability ([2]; first compound 2.53 µM),relative viability ([2]; first compound 8 µM),relative viability ([3]; first compound 0.002 µM),relative viability ([3]; first compound 0.006325 µM),relative viability ([3]; first compound 0.02 µM),relative viability ([3]; first compound 0.06325 µM),relative viability ([3]; first compound 0.2 µM),relative viability ([4]; first compound 0.002 µM),relative viability ([4]; first compound 0.006325 µM),relative viability ([4]; first compound 0.02 µM),relative viability ([4]; first compound 0.06325 µM),relative viability ([4]; first compound 0.2 µM)
NCI-H1666,0.442,0.404,0.421,0.408,0.456,0.946,1.01,0.917,0.9,0.95,0.742,0.614,0.667,0.526,0.614,0.955,0.683,0.874,0.713,0.747
NCI-H1651,0.656,0.56,0.603,0.633,0.588,0.771,0.843,0.804,0.603,0.84,0.693,0.677,0.564,0.475,0.286,0.187,0.173,0.178,0.208,0.215
NCI-H1755,0.347,0.331,0.333,0.42,0.431,0.817,0.913,0.893,0.93,0.9,0.613,0.555,0.577,0.542,0.419,0.987,0.886,0.86,0.733,0.476
NCI-H661,–,0.357,0.392,0.563,0.45,1,1.02,0.981,0.984,0.999,0.345,0.366,0.345,0.381,0.353,0.706,0.656,0.771,0.504,0.434
HARA,0.267,0.399,0.287,0.228,0.264,0.85,0.963,0.766,0.709,0.633,0.103,0.116,0.103,0.112,0.0818,1.23,0.858,0.898,0.684,0.24
NCI-H596,0.362,0.382,0.355,0.394,0.445,0.746,0.897,0.805,0.897,0.731,0.942,0.751,0.632,0.35,0.32,0.656,0.719,0.527,0.417,0.329
NCI-H23,0.402,–,0.582,0.416,0.478,0.944,–,0.865,0.938,1.07,0.346,0.399,0.318,0.208,0.178,0.266,0.254,0.239,0.223,0.161
LCLC-97TM1,0.233,0.171,0.273,0.144,0.15,0.874,0.87,0.888,0.86,1.02,0.189,0.15,0.151,0.171,0.111,0.383,0.416,0.319,0.256,0.093
EPLC-272H,0.255,0.306,0.285,0.256,0.289,–,0.704,0.635,0.569,0.698,0.348,0.221,0.243,0.207,0.193,0.807,0.486,0.512,0.284,0.232
NCI-H1915,0.907,0.891,0.835,0.703,0.913,1.06,1.11,1,0.977,1.1,0.419,0.506,0.459,0.404,0.296,0.254,0.253,0.293,0.264,0.246
NCI-H2405,0.256,0.21,0.278,0.259,0.254,0.755,0.776,0.746,0.767,0.746,0.79,0.826,0.85,0.527,0.44,0.866,0.86,0.858,0.5,0.409
NCI-H322M,0.517,0.422,0.562,0.508,0.504,0.889,1,0.952,0.946,1.1,0.386,0.46,0.414,0.412,0.37,0.752,0.789,0.774,0.719,0.674
NCI-H2170,0.319,0.289,0.254,0.336,0.33,1.05,1.07,0.994,1.03,0.934,0.753,0.735,0.62,0.511,0.252,0.535,0.533,0.601,0.389,0.255
NCI-H1395,0.704,0.563,0.512,0.635,0.698,0.978,0.943,0.899,0.999,1.07,0.657,0.709,0.676,0.593,0.53,0.439,0.434,0.428,0.387,0.401
NCI-H358,0.3,0.332,0.355,0.313,0.371,0.573,0.732,0.629,0.549,0.59,0.114,0.0941,0.0945,0.0839,0.0896,0.675,0.557,0.552,0.478,0.169
NCI-H838,0.342,0.404,0.493,0.344,0.411,0.983,1.01,0.994,0.965,1.01,0.249,0.295,0.254,0.208,0.199,0.924,0.657,0.43,0.273,0.208
CAL-12T,0.445,0.355,0.559,0.432,0.512,1.03,1.11,1.18,1.22,1.36,0.288,0.296,0.241,0.163,0.121,0.822,0.662,0.496,0.286,0.271
